Measurements: ChEMBL document CHEMBL1201862, “PubChem BioAssay data set” (2004)
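Cells were grown in 96-well plates and exposed to each compound for 48 hours at five concentrations; endpoints were interpolated linearly between bracketing concentrations, or set to the highest concentration if not reached. GI50: concentration for 50% inhibition of growth.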 Active and inactive are the calls of the source. Rule as the data show it: active = GI50 up to about 1.1 µM and inactive = higher.

Key:
Test in all cases: DTP human tumour cell line panel, 48 h
A498 = tested on: A498
ACHN = tested on: ACHN
CAKI-1 = tested on: CAKI-1
EKVX = tested on: EKVX
HCT-116 = tested on: HCT-116
HL-60 = tested on: HL-60
HOP-62 = tested on: HOP-62
K562 = tested on: K562
LOX IMVI = tested on: LOX IMVI
MDA-MB-435 = tested on: MDA-MB-435
MDA-N = tested on: MDA-N
NCI-H23 = tested on: NCI-H23
OVCAR-3 = tested on: OVCAR-3
OVCAR-8 = tested on: OVCAR-8
PC-3 = tested on: PC-3
RXF 393 = tested on: RXF 393
SF-295 = tested on: SF-295
SK-MEL-28 = tested on: SK-MEL-28
SK-MEL-5 = tested on: SK-MEL-5
T47D = tested on: T47D

Row | Compound | GI50 (A498) | GI50 (ACHN) | GI50 (CAKI-1) | GI50 (EKVX) | GI50 (HCT-116) | GI50 (HL-60) | GI50 (HOP-62) | GI50 (K562) | GI50 (LOX IMVI) | GI50 (MDA-MB-435) | GI50 (MDA-N) | GI50 (NCI-H23) | GI50 (OVCAR-3) | GI50 (OVCAR-8) | GI50 (PC-3) | GI50 (RXF 393) | GI50 (SF-295) | GI50 (SK-MEL-28) | GI50 (SK-MEL-5) | GI50 (T47D)
1 | CC1(C)[C@@H]2CC[C@@]1(C)[C@H](O)[C@@H]2SCc1ccccc1 | < 0.01 µM (active) | 11.7 µM (inactive) | 25.1 µM (inactive) | 15.3 µM (inactive) | 17.2 µM (inactive) | 25.5 µM (inactive) | 17.9 µM (inactive) | 25.2 µM (inactive) | 18.5 µM (inactive) | 18.2 µM (inactive) | 18.9 µM (inactive) | 14.1 µM (inactive) | 17.1 µM (inactive) | 19.1 µM (inactive) | 20.8 µM (inactive) | 18.5 µM (inactive) | 18.1 µM (inactive) | 17.5 µM (inactive) | 15.4 µM (inactive) | 24 µM (inactive)
2 | COc1ccc2nc3ccc(OC)cc3c(SCCCl)c2c1 | 31.1 µM (inactive) | 13.9 µM (inactive) | 3.82 µM (inactive) | > 49.9 µM (inactive) | 6.22 µM (inactive) | 3.28 µM (inactive) | 18.1 µM (inactive) | 9.66 µM (inactive) | 5.98 µM (inactive) | 9.95 µM (inactive) | > 50.6 µM (inactive) | 16 µM (inactive) | 18.2 µM (inactive) | 8.57 µM (inactive) | 22.6 µM (inactive) | > 20.6 µM (inactive) | 26.2 µM (inactive) | 31.7 µM (inactive) | 8.87 µM (inactive) | 15.2 µM (inactive)
3 | COc1ccc(/C=C2\C[C@H]3[C@@H]4CC=C5C[C@@H](OC(C)=O)CC[C@]5(C)[C@H]4CC[C@]3(C)C2=O)cc1OC | 33 µM (inactive) | 49.5 µM (inactive) | 22.5 µM (inactive) | 15.7 µM (inactive) | 38.8 µM (inactive) | 16.7 µM (inactive) | 0.815 µM (active) | 7.96 µM (inactive) | 42.9 µM (inactive) | 48.4 µM (inactive) | 39.9 µM (inactive) | 70 µM (inactive) | > 100 µM (inactive) | 40.6 µM (inactive) | 55.1 µM (inactive) | 69.5 µM (inactive) | 0.47 µM (active) | > 100 µM (inactive) | 10.6 µM (inactive) | 35.7 µM (inactive)
4 | Nc1nc(N)c2c(n1)NC(c1ccccc1)CC(/C=C/c1ccc(Cl)cc1)=N2 (stereo not given) | 15.4 µM (inactive) | 10.8 µM (inactive) | 7.87 µM (inactive) | 4.32 µM (inactive) | 1.99 µM (inactive) | 10.2 µM (inactive) | 14.8 µM (inactive) | 2.65 µM (inactive) | 3.49 µM (inactive) | 3.59 µM (inactive) | 5.55 µM (inactive) | 3.69 µM (inactive) | 5.62 µM (inactive) | 5.28 µM (inactive) | 6.59 µM (inactive) | 3.62 µM (inactive) | 14.1 µM (inactive) | 13.5 µM (inactive) | 9.4 µM (inactive) | 5.83 µM (inactive)
5 | O=C1C=C(Nc2ccccc2C(=O)CC(=O)C(=O)Nc2cccc(C(F)(F)F)c2)c2ccccc2C1=O | > 100 µM (inactive) | 28.3 µM (inactive) | 64 µM (inactive) | 37.8 µM (inactive) | 23 µM (inactive) | 4.94 µM (inactive) | 40 µM (inactive) | 8.32 µM (inactive) | 6.04 µM (inactive) | 7.5 µM (inactive) | 12.6 µM (inactive) | 13.6 µM (inactive) | 6.35 µM (inactive) | 17.3 µM (inactive) | 17.9 µM (inactive) | 20.8 µM (inactive) | 21.3 µM (inactive) | 24.1 µM (inactive) | 15.8 µM (inactive) | > 100 µM (inactive)
6 | NCCNCCCCCCNC(=O)c1cccc2cc3ccccc3nc12 | 2.43 µM (inactive) | 2.28 µM (inactive) | 4.78 µM (inactive) | 8.59 µM (inactive) | 2.15 µM (inactive) | 1.39 µM (inactive) | 2 µM (inactive) | 2.06 µM (inactive) | 1.47 µM (inactive) | 3.59 µM (inactive) | 2.7 µM (inactive) | 2.07 µM (inactive) | 2.51 µM (inactive) | 2.03 µM (inactive) | 2.99 µM (inactive) | 3.95 µM (inactive) | 3.6 µM (inactive) | 5.65 µM (inactive) | 3.61 µM (inactive) | 5.13 µM (inactive)
7 | COc1ccc(/C=N/Nc2nc3ccccc3c(=O)n2-c2ccccc2)cc1 | > 100 µM (inactive) | > 100 µM (inactive) | > 100 µM (inactive) | > 100 µM (inactive) | > 100 µM (inactive) | > 100 µM (inactive) | > 100 µM (inactive) | > 100 µM (inactive) | 95.1 µM (inactive) | > 100 µM (inactive) | > 100 µM (inactive) | 55.6 µM (inactive) | > 100 µM (inactive) | > 100 µM (inactive) | > 100 µM (inactive) | > 100 µM (inactive) | > 100 µM (inactive) | > 100 µM (inactive) | > 100 µM (inactive) | > 100 µM (inactive)
